Values quoted from earlier work as cited in patent publication US5929038A, “Pharmaceutical preparations which inhibit hepatitis B virus (HBV) replication” (Choongwae Pharmaceutical Co., Ltd., priority 1992, dated 1999).

Test system: hepatitis B (HBV infection)
Settings: cited from earlier work

SMILES: Nc1ncnc2c1ncn2[C@@H]1O[C@H](COP(=O)(O)O)[C@@H](O)[C@@H]1O [ara-AMP, reference compound]
- suppression of HBV infection (clinical use): transiently suppress HBV infection
- toxicities (in vivo): often serious toxicities
